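Method: 48-hour compound exposure of cells in 96-well plates, five concentrations, linear interpolation of endpoints. The concentration for 50% growth inhibition is given as GI50. Definition used: TGI = concentration required for complete inhibition of growth.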
What was measured:
Assay in all cases: NCI tumour cell line growth inhibition, 48 h
[1] = tested on: 786-0 renal
[2] = tested on: A549 NSCLC
[3] = tested on: ACHN renal
[4] = tested on: CCRF-CEM leukemia
[5] = tested on: COLO 205 colon
[6] = tested on: DU-145 prostate
[7] = tested on: HCC-2998 colon
[8] = tested on: HCT-116 colon
[9] = tested on: HCT-15 colon
[10] = tested on: HL-60(TB) leukemia
[11] = tested on: HOP-62 NSCLC
[12] = tested on: HOP-92 NSCLC
[13] = tested on: HS 578T breast
[14] = tested on: HT29 colon
[15] = tested on: IGROV1 ovarian
[16] = tested on: K-562 leukemia
[17] = tested on: KM12 colon
[18] = tested on: LOX IMVI melanoma
[19] = tested on: M14 melanoma
[20] = tested on: MALME-3M melanoma
[21] = tested on: MCF7 breast
[22] = tested on: MDA-MB-231 breast
[23] = tested on: MDA-MB-435
[24] = tested on: MDA-N
[25] = tested on: MOLT-4 leukemia
[26] = tested on: NCI-H226 lung
[27] = tested on: NCI-H23 lung
[28] = tested on: NCI-H460 lung
[29] = tested on: NCI-H522 lung
[30] = tested on: NCI/ADR-RES ovarian
[31] = tested on: OVCAR-3 ovarian
[32] = tested on: OVCAR-4 ovarian
[33] = tested on: OVCAR-5 ovarian
[34] = tested on: OVCAR-8 ovarian
[35] = tested on: PC-3 prostate
[36] = tested on: RPMI-8226 leukemia
[37] = tested on: RXF 393 renal
[38] = tested on: SF-268 CNS
[39] = tested on: SF-295 CNS
[40] = tested on: SF-539 CNS
[41] = tested on: SK-MEL-2 melanoma
[42] = tested on: SK-MEL-28 melanoma
[43] = tested on: SK-MEL-5 melanoma
[44] = tested on: SK-OV-3 ovarian
[45] = tested on: SN12C renal
[46] = tested on: SNB-19 CNS
[47] = tested on: SNB-75 CNS
[48] = tested on: SR leukemia
[49] = tested on: SW-620 colon
[50] = tested on: T-47D breast
[51] = tested on: TK-10 renal
[52] = tested on: U251 CNS
[53] = tested on: UACC-257 melanoma
[54] = tested on: UACC-62 melanoma
[55] = tested on: UO-31 renal
[56] = tested on: A498 renal
[57] = tested on: BT-549 breast
[58] = tested on: CAKI-1 renal
[59] = tested on: EKVX NSCLC

SMILES: CCOC(=O)Cn1c(=O)c2nc(SC)sc2n(-c2ccccc2)c1=S
- TGI [1]: 30900 nM
- TGI [2]: > 100000 nM
- TGI [3]: 43400 nM
- TGI [4]: > 100000 nM
- TGI [5]: > 100000 nM
- TGI [6]: > 100000 nM
- TGI [7]: > 100000 nM
- TGI [8]: > 100000 nM
- TGI [9]: > 100000 nM
- TGI [10]: 59400 nM
- TGI [11]: 57100 nM
- TGI [12]: 21000 nM
- TGI [13]: 34400 nM
- TGI [14]: > 100000 nM
- TGI [15]: > 100000 nM
- TGI [16]: > 100000 nM
- TGI [17]: 94900 nM
- TGI [18]: > 100000 nM
- TGI [19]: 70400 nM
- TGI [20]: 60200 nM
- TGI [21]: > 100000 nM
- TGI [22]: 72900 nM
- TGI [23]: > 100000 nM
- TGI [24]: > 100000 nM
- TGI [25]: > 100000 nM
- TGI [26]: 36600 nM
- TGI [27]: > 100000 nM
- TGI [28]: 99400 nM
- TGI [29]: > 100000 nM
- TGI [30]: > 100000 nM
- TGI [31]: 97700 nM
- TGI [32]: 35200 nM
- TGI [33]: > 100000 nM
- TGI [34]: 95800 nM
- TGI [35]: 84400 nM
- TGI [36]: > 100000 nM
- TGI [37]: 52200 nM
- TGI [38]: > 100000 nM
- TGI [39]: > 100000 nM
- TGI [40]: 31600 nM
- TGI [41]: 63100 nM
- TGI [42]: > 100000 nM
- TGI [43]: > 100000 nM
- TGI [44]: 60700 nM
- TGI [45]: > 100000 nM
- TGI [46]: 30600 nM
- TGI [47]: 12500 nM
- TGI [48]: > 100000 nM
- TGI [49]: > 100000 nM
- TGI [50]: > 100000 nM
- TGI [51]: 60100 nM
- TGI [52]: 29300 nM
- TGI [53]: > 100000 nM
- TGI [54]: 11500 nM
- TGI [55]: 15000 nM

SMILES: S=C(NCCNC(=S)[S][Sn]([c]1ccccc1)([c]1ccccc1)[c]1ccccc1)[S][Sn]([c]1ccccc1)([c]1ccccc1)[c]1ccccc1
- GI50 [1]: 36.6 nM
- TGI [1]: 104 nM
- GI50 [56]: 23.1 nM
- TGI [56]: 84.9 nM
- GI50 [2]: 23.1 nM
- TGI [2]: 93.8 nM
- GI50 [3]: 18.5 nM
- TGI [3]: 62.4 nM
- GI50 [57]: 79.9 nM
- TGI [57]: 183 nM
- GI50 [58]: 38.6 nM
- TGI [58]: 146 nM
- GI50 [4]: 17.9 nM
- TGI [4]: 657 nM
- GI50 [5]: 16.6 nM
- TGI [5]: 41.1 nM
- GI50 [6]: 18.1 nM
- TGI [6]: 54.2 nM
- GI50 [59]: 30.4 nM
- TGI [59]: 129 nM
- GI50 [7]: 21.9 nM
- TGI [7]: 76.4 nM
- GI50 [8]: 12.7 nM
- TGI [8]: 31.5 nM
- GI50 [9]: 17.7 nM
- TGI [9]: 69.6 nM
- GI50 [10]: 93 nM
- TGI [10]: 312 nM
- GI50 [11]: 67.7 nM
- TGI [11]: 147 nM
- GI50 [12]: 10.2 nM
- TGI [12]: 49.3 nM
- GI50 [13]: 56.4 nM
- TGI [13]: 461 nM
- GI50 [14]: 19 nM
- TGI [14]: 58.4 nM
- GI50 [15]: 42.9 nM
- TGI [15]: 216 nM
- GI50 [16]: 16.8 nM
- TGI [16]: 144 nM
- GI50 [17]: 19.7 nM
- TGI [17]: 65.2 nM
- GI50 [18]: 15.2 nM
- TGI [18]: 54.1 nM
- GI50 [19]: 26.7 nM
- TGI [19]: 97.6 nM
- GI50 [20]: 68.7 nM
- TGI [20]: 201 nM
- GI50 [21]: 13.3 nM
- TGI [21]: 55.3 nM
- GI50 [22]: 20.7 nM
- TGI [22]: 95.7 nM
- GI50 [23]: 15.3 nM
- TGI [23]: 55.9 nM
- GI50 [25]: 22.2 nM
- TGI [25]: 309 nM
- GI50 [26]: 63.9 nM
- TGI [26]: 144 nM
- GI50 [27]: 27.3 nM
- TGI [27]: 119 nM
- GI50 [28]: 16.9 nM
- TGI [28]: 57.5 nM
- GI50 [29]: 26.5 nM
- TGI [29]: 94.1 nM
- GI50 [30]: 18.4 nM
- TGI [30]: 97.6 nM
- GI50 [31]: 14.5 nM
- TGI [31]: 38.4 nM
- GI50 [32]: 21.2 nM
- TGI [32]: 80.5 nM
- GI50 [33]: 49.6 nM
- TGI [33]: 123 nM
- GI50 [34]: 44.5 nM
- TGI [34]: 202 nM
- GI50 [35]: 31.1 nM
- TGI [35]: 153 nM
- GI50 [36]: 23.4 nM
- TGI [36]: 147 nM
- GI50 [37]: 10 nM
- TGI [37]: 20.6 nM
- GI50 [38]: 41.6 nM
- TGI [38]: 123 nM
- GI50 [39]: 99 nM
- TGI [39]: 227 nM
- GI50 [40]: 68.2 nM
- TGI [40]: 203 nM
- GI50 [41]: 82.3 nM
- TGI [41]: 215 nM
- GI50 [42]: 23.7 nM
- TGI [42]: 81.7 nM
- GI50 [43]: 43.2 nM
- TGI [43]: 108 nM
- GI50 [44]: 23.1 nM
- TGI [44]: 79.9 nM
- GI50 [45]: 32.5 nM
- TGI [45]: 218 nM
- GI50 [46]: 63.8 nM
- TGI [46]: 139 nM
- GI50 [47]: 16.2 nM
- TGI [47]: 87 nM
- GI50 [48]: 17 nM
- TGI [48]: 16200 nM
- GI50 [49]: 14 nM
- TGI [49]: 37.9 nM
- GI50 [50]: 20 nM
- TGI [50]: 91 nM
- GI50 [51]: 61.2 nM
- TGI [51]: 126 nM
- GI50 [52]: 18.7 nM
- TGI [52]: 64 nM
- GI50 [53]: 52.2 nM
- TGI [53]: 117 nM
- GI50 [54]: 23.1 nM
- TGI [54]: 104 nM
- GI50 [55]: 33.7 nM
- TGI [55]: 100 nM

Source: PubChem BioAssay (NCI)
